Measured values: ChEMBL document CHEMBL2057188, “Hybridizing ability and nuclease resistance profile of backbone modified cationic phosphorothioate oligonucleotides” (Bioorg Med Chem, 2012)

Experiments:
Format in all cases: nucleic-acid assay
[1] = tested on: Nucleic Acid; test: (§1) DNA hybridizing activity at 22 bp double stranded DNA assessed as thermal stability of duplexes formed between compound and complimentary dsDNA by measuring melting temperature at 1.5 uM in presence of 7 mM pH 5.5 sodium phosphate buffer containing 140 mM K, 10 mM MgCl2 by UV based melting experiment
[2] = tested on: Nucleic Acid; test: (§2) DNA hybridizing activity at single stranded DNA assessed as thermal stability of duplexes formed between compound and complimentary ssDNA by measuring melting temperature at 4 uM in presence of 10 mM pH 7.2 sodium phosphate buffer containing 100 mM NaCl by UV based melting experiment
[3] = tested on: Nucleic Acid; test: as §2, with “measuring change in” for “measuring”, “experiment relative to untreated control” for “experiment”
[4] = tested on: Nucleic Acid; test: DNA hybridizing activity at single stranded RNA assessed as thermal stability of duplexes formed between compound and complimentary ssRNA by measuring change in melting temperature at 4 uM in presence of 10 mM pH 7.2 sodium phosphate buffer containing 100 mM NaCl by UV based melting experiment relative to untreated control
[5] = tested on: Nucleic Acid; test: DNA hybridizing activity at single stranded RNA assessed as thermal stability of duplexes formed between compound and complimentary ssRNA by measuring melting temperature at 4 uM in presence of 10 mM pH 7.2 sodium phosphate buffer containing 100 mM NaCl by UV based melting experiment
[6] = tested on: Nucleic Acid; test: as §1, with “measuring change in” for “measuring”

SMILES	Tm [1]	Tm [2]	ΔTm [3]	ΔTm [4]	Tm [5]	ΔTm [6]
Cc1cn([C@H]2C[C@H](OP(=O)(O)OC[C@H]3O[C@@H](n4cc(C)c(=O)[nH]c4=O)C[C@@H]3OP(=O)(O)OC[C@H]3O[C@@H](n4cc(C)c(=O)[nH]c4=O)C[C@@H]3O[P@](=O)(OC[C@H]3O[C@@H](n4cc(C)c(=O)[nH]c4=O)C[C@@H]3OP(=O)(O)OC[C@H]3O[C@@H](n4cc(C)c(=O)[nH]c4=O)C[C@@H]3OP(=O)(O)OC[C@H]3O[C@@H](n4cc(C)c(=O)[nH]c4=O)C[C@@H]3OP(=O)(O)OC[C@H]3O[C@@H](n4ccc(N)nc4=O)C[C@@H]3OP(=O)(O)OC[C@H]3O[C@@H](n4ccc(N)nc4=O)C[C@@H]3OP(=O)(O)OC[C@H]3O[C@@H](n4ccc(N)nc4=O)C[C@@H]3OP(=O)(O)O)SCCCCCN)[C@@H](COP(=O)(O)O[C@H]3C[C@H](n4ccc(N)nc4=O)O[C@@H]3COP(=O)(O)O[C@H]3C[C@H](n4ccc(N)nc4=O)O[C@@H]3COP(=O)(O)O[C@H]3C[C@H](n4ccc(N)nc4=O)O[C@@H]3CO)O2)c(=O)[nH]c1=O	24 °C	39 °C	-3 °C	-4 °C	42 °C	-2 °C
Cc1cn([C@H]2C[C@H](OP(=O)(O)OC[C@H]3O[C@@H](n4cc(C)c(=O)[nH]c4=O)C[C@@H]3OP(=O)(O)OC[C@H]3O[C@@H](n4cc(C)c(=O)[nH]c4=O)C[C@@H]3O[P@@](=O)(OC[C@H]3O[C@@H](n4cc(C)c(=O)[nH]c4=O)C[C@@H]3OP(=O)(O)OC[C@H]3O[C@@H](n4cc(C)c(=O)[nH]c4=O)C[C@@H]3OP(=O)(O)OC[C@H]3O[C@@H](n4cc(C)c(=O)[nH]c4=O)C[C@@H]3OP(=O)(O)OC[C@H]3O[C@@H](n4ccc(N)nc4=O)C[C@@H]3OP(=O)(O)OC[C@H]3O[C@@H](n4ccc(N)nc4=O)C[C@@H]3OP(=O)(O)OC[C@H]3O[C@@H](n4ccc(N)nc4=O)C[C@@H]3OP(=O)(O)O)SCCCN)[C@@H](COP(=O)(O)O[C@H]3C[C@H](n4ccc(N)nc4=O)O[C@@H]3COP(=O)(O)O[C@H]3C[C@H](n4ccc(N)nc4=O)O[C@@H]3COP(=O)(O)O[C@H]3C[C@H](n4ccc(N)nc4=O)O[C@@H]3CO)O2)c(=O)[nH]c1=O	29 °C	43 °C	1 °C	0 °C	46 °C	4 °C
Cc1cn([C@H]2C[C@H](OP(=O)(O)OC[C@H]3O[C@@H](n4cc(C)c(=O)[nH]c4=O)C[C@@H]3OP(=O)(O)OC[C@H]3O[C@@H](n4cc(C)c(=O)[nH]c4=O)C[C@@H]3O[P@](=O)(OC[C@H]3O[C@@H](n4cc(C)c(=O)[nH]c4=O)C[C@@H]3OP(=O)(O)OC[C@H]3O[C@@H](n4cc(C)c(=O)[nH]c4=O)C[C@@H]3OP(=O)(O)OC[C@H]3O[C@@H](n4cc(C)c(=O)[nH]c4=O)C[C@@H]3OP(=O)(O)OC[C@H]3O[C@@H](n4ccc(N)nc4=O)C[C@@H]3OP(=O)(O)OC[C@H]3O[C@@H](n4ccc(N)nc4=O)C[C@@H]3OP(=O)(O)OC[C@H]3O[C@@H](n4ccc(N)nc4=O)C[C@@H]3OP(=O)(O)O)SCCCCN)[C@@H](COP(=O)(O)O[C@H]3C[C@H](n4ccc(N)nc4=O)O[C@@H]3COP(=O)(O)O[C@H]3C[C@H](n4ccc(N)nc4=O)O[C@@H]3COP(=O)(O)O[C@H]3C[C@H](n4ccc(N)nc4=O)O[C@@H]3CO)O2)c(=O)[nH]c1=O	24 °C	40 °C	-2 °C	-3 °C	43 °C	-2 °C
Cc1cn([C@H]2C[C@H](OP(=O)(O)OC[C@H]3O[C@@H](n4cc(C)c(=O)[nH]c4=O)C[C@@H]3OP(=O)(O)OC[C@H]3O[C@@H](n4cc(C)c(=O)[nH]c4=O)C[C@@H]3O[P@](=O)(OC[C@H]3O[C@@H](n4cc(C)c(=O)[nH]c4=O)C[C@@H]3OP(=O)(O)OC[C@H]3O[C@@H](n4cc(C)c(=O)[nH]c4=O)C[C@@H]3OP(=O)(O)OC[C@H]3O[C@@H](n4cc(C)c(=O)[nH]c4=O)C[C@@H]3OP(=O)(O)OC[C@H]3O[C@@H](n4ccc(N)nc4=O)C[C@@H]3OP(=O)(O)OC[C@H]3O[C@@H](n4ccc(N)nc4=O)C[C@@H]3OP(=O)(O)OC[C@H]3O[C@@H](n4ccc(N)nc4=O)C[C@@H]3OP(=O)(O)O)SCCN3CCNCC3)[C@@H](COP(=O)(O)O[C@H]3C[C@H](n4ccc(N)nc4=O)O[C@@H]3COP(=O)(O)O[C@H]3C[C@H](n4ccc(N)nc4=O)O[C@@H]3COP(=O)(O)O[C@H]3C[C@H](n4ccc(N)nc4=O)O[C@@H]3CO)O2)c(=O)[nH]c1=O	24 °C	40 °C	-2 °C	-2 °C	44 °C	-2 °C
Cc1cn([C@H]2C[C@H](OP(=O)(O)OC[C@H]3O[C@@H](n4cc(C)c(=O)[nH]c4=O)C[C@@H]3OP(=O)(O)OC[C@H]3O[C@@H](n4cc(C)c(=O)[nH]c4=O)C[C@@H]3O[P@](=O)(OC[C@H]3O[C@@H](n4cc(C)c(=O)[nH]c4=O)C[C@@H]3OP(=O)(O)OC[C@H]3O[C@@H](n4cc(C)c(=O)[nH]c4=O)C[C@@H]3OP(=O)(O)OC[C@H]3O[C@@H](n4cc(C)c(=O)[nH]c4=O)C[C@@H]3OP(=O)(O)OC[C@H]3O[C@@H](n4ccc(N)nc4=O)C[C@@H]3OP(=O)(O)OC[C@H]3O[C@@H](n4ccc(N)nc4=O)C[C@@H]3OP(=O)(O)OC[C@H]3O[C@@H](n4ccc(N)nc4=O)C[C@@H]3OP(=O)(O)O)SCCNCCN)[C@@H](COP(=O)(O)O[C@H]3C[C@H](n4ccc(N)nc4=O)O[C@@H]3COP(=O)(O)O[C@H]3C[C@H](n4ccc(N)nc4=O)O[C@@H]3COP(=O)(O)O[C@H]3C[C@H](n4ccc(N)nc4=O)O[C@@H]3CO)O2)c(=O)[nH]c1=O	25 °C	40 °C	-2 °C	-2 °C	44 °C	-1 °C
Cc1cn([C@H]2C[C@H](OP(=O)(O)OC[C@H]3O[C@@H](n4cc(C)c(=O)[nH]c4=O)C[C@@H]3OP(=O)(O)OC[C@H]3O[C@@H](n4cc(C)c(=O)[nH]c4=O)C[C@@H]3O[P@@](=O)(S)OC[C@H]3O[C@@H](n4cc(C)c(=O)[nH]c4=O)C[C@@H]3OP(=O)(O)OC[C@H]3O[C@@H](n4cc(C)c(=O)[nH]c4=O)C[C@@H]3OP(=O)(O)OC[C@H]3O[C@@H](n4cc(C)c(=O)[nH]c4=O)C[C@@H]3OP(=O)(O)OC[C@H]3O[C@@H](n4ccc(N)nc4=O)C[C@@H]3OP(=O)(O)OC[C@H]3O[C@@H](n4ccc(N)nc4=O)C[C@@H]3OP(=O)(O)OC[C@H]3O[C@@H](n4ccc(N)nc4=O)C[C@@H]3OP(=O)(O)O)[C@@H](COP(=O)(O)O[C@H]3C[C@H](n4ccc(N)nc4=O)O[C@@H]3COP(=O)(O)O[C@H]3C[C@H](n4ccc(N)nc4=O)O[C@@H]3COP(=O)(O)O[C@H]3C[C@H](n4ccc(N)nc4=O)O[C@@H]3CO)O2)c(=O)[nH]c1=O	26 °C	42 °C	–	–	46 °C	–
Cc1cn([C@H]2C[C@H](OP(=O)(O)OC[C@H]3O[C@@H](n4cc(C)c(=O)[nH]c4=O)C[C@@H]3OP(=O)(O)OC[C@H]3O[C@@H](n4cc(C)c(=O)[nH]c4=O)C[C@@H]3O[P@](=O)(OC[C@H]3O[C@@H](n4cc(C)c(=O)[nH]c4=O)C[C@@H]3OP(=O)(O)OC[C@H]3O[C@@H](n4cc(C)c(=O)[nH]c4=O)C[C@@H]3OP(=O)(O)OC[C@H]3O[C@@H](n4cc(C)c(=O)[nH]c4=O)C[C@@H]3OP(=O)(O)OC[C@H]3O[C@@H](n4ccc(N)nc4=O)C[C@@H]3OP(=O)(O)OC[C@H]3O[C@@H](n4ccc(N)nc4=O)C[C@@H]3OP(=O)(O)OC[C@H]3O[C@@H](n4ccc(N)nc4=O)C[C@@H]3OP(=O)(O)O)SCCNCCCN)[C@@H](COP(=O)(O)O[C@H]3C[C@H](n4ccc(N)nc4=O)O[C@@H]3COP(=O)(O)O[C@H]3C[C@H](n4ccc(N)nc4=O)O[C@@H]3COP(=O)(O)O[C@H]3C[C@H](n4ccc(N)nc4=O)O[C@@H]3CO)O2)c(=O)[nH]c1=O	25 °C	40 °C	-2 °C	-2 °C	44 °C	-1 °C
Cc1cn([C@H]2C[C@H](OP(=O)(O)OC[C@H]3O[C@@H](n4cc(C)c(=O)[nH]c4=O)C[C@@H]3OP(=O)(O)OC[C@H]3O[C@@H](n4cc(C)c(=O)[nH]c4=O)C[C@@H]3O[P@](=O)(S)OC[C@H]3O[C@@H](n4cc(C)c(=O)[nH]c4=O)C[C@@H]3OP(=O)(O)OC[C@H]3O[C@@H](n4cc(C)c(=O)[nH]c4=O)C[C@@H]3OP(=O)(O)OC[C@H]3O[C@@H](n4cc(C)c(=O)[nH]c4=O)C[C@@H]3OP(=O)(O)OC[C@H]3O[C@@H](n4ccc(N)nc4=O)C[C@@H]3OP(=O)(O)OC[C@H]3O[C@@H](n4ccc(N)nc4=O)C[C@@H]3OP(=O)(O)OC[C@H]3O[C@@H](n4ccc(N)nc4=O)C[C@@H]3OP(=O)(O)O)[C@@H](COP(=O)(O)O[C@H]3C[C@H](n4ccc(N)nc4=O)O[C@@H]3COP(=O)(O)O[C@H]3C[C@H](n4ccc(N)nc4=O)O[C@@H]3COP(=O)(O)O[C@H]3C[C@H](n4ccc(N)nc4=O)O[C@@H]3CO)O2)c(=O)[nH]c1=O	25 °C	42 °C	–	–	46 °C	–
Cc1cn([C@H]2C[C@H](OP(=O)(O)O)[C@@H](COP(=O)(O)O[C@H]3C[C@H](n4ccc(N)nc4=O)O[C@@H]3COP(=O)(O)O[C@H]3C[C@H](n4ccc(N)nc4=O)O[C@@H]3COP(=O)(O)O[C@H]3C[C@H](n4cc(C)c(=O)[nH]c4=O)O[C@@H]3COP(=O)(O)O[C@H]3C[C@H](n4cc(C)c(=O)[nH]c4=O)O[C@@H]3COP(=O)(O)O[C@H]3C[C@H](n4cc(C)c(=O)[nH]c4=O)O[C@@H]3COP(=O)(O)O[C@H]3C[C@H](n4cc(C)c(=O)[nH]c4=O)O[C@@H]3COP(=O)(O)O[C@H]3C[C@H](n4cc(C)c(=O)[nH]c4=O)O[C@@H]3COP(=O)(O)O[C@H]3C[C@H](n4cc(C)c(=O)[nH]c4=O)O[C@@H]3COP(=O)(O)O[C@H]3C[C@H](n4ccc(N)nc4=O)O[C@@H]3COP(=O)(O)O[C@H]3C[C@H](n4ccc(N)nc4=O)O[C@@H]3COP(=O)(O)O[C@H]3C[C@H](n4ccc(N)nc4=O)O[C@@H]3CO)O2)c(=O)[nH]c1=O	29 °C	44 °C	–	–	48 °C	–
